Measured values: US7368469B2, “Use of inhibitors of the renin-angiotensin system in the prevention of cardiovascular events” (Sanofi-Aventis Deutschland GmbH, priority 1999, dated 2008)
Like-named read-outs stand apart in the source and are kept apart here.

Experiments:
[1] = tested on: patients randomized to captopril compared to a diuretic or beta blocker; conditions: cited from earlier work
[2] = tested on: high risk patients without known low EF or HF; assay type: in vivo; conditions: for Blood pressure: active group
Procedure: A large-scale clinical trial (HOPE (Heart Outcomes Prevention Evaluation) Study) was designed to examine the effect of the ACE inhibitor ramipril versus placebo in reducing cardiovascular events. 9,297 high risk patients (≧55 yrs with evidence of vascular disease or diabetes plus one additional risk factor), without known low EF or HF were randomized to receive Ramipril (2.5 mg to 10 mg/day) or matching placebo for a mean duration of 5 years. The primary outcome was the first occurrence of the composite of cardiovascular (CV) mortality, myocardial infarction or stroke. The study was stopped at 4.5 years by the independent Data and Safety Monitoring Board because of convincing evidence of benefit. 646 (13.9%) patients allocated to Ramipril and 816 (17.5%) placebo patients experienced a primary outcome (Relative risk, RR of 0.78, 95% confidence interval of 0.70-0.86; Portable=0.000002). There were clear and significant reductions separately in CV deaths (6.0% v. 8.0%, RR of 0.75, Portable=0.0002), myocardial infarction (9.8% v.12.0%, RR of 0.68, Portable=0.0002). […] Other outcomes included worsening or new angina, or new heart failure (irrespective of hospitalization).
In a double blind, 2×2 factorial, randomized trial, HOPE evaluated Ramipril or vitamin E in 9541 patients. A substudy of 244 patients tested a low dose (2.5 mg/day) versus the full dose (10 mg/day) of Ramipril. The primary outcome in these 244 patients is reported as a footnote to Table 3. Therefore the main results report is on 9,297 patients randomized to receive 10 mg Ramipril or equivalent placebo. The effects of vitamin E are reported separately. The design of HOPE has been published (Can J Cardiology 1996; 12(2); 127-137), a brief summary follows below:
Men and women were eligible if aged 55 years and older, with prior coronary artery disease, stroke, peripheral vascular disease or diabetes plus at least one other risk factor (current or previous hypertension, elevated total cholesterol, low HDL cholesterol, current cigarette smoking, known microalbuminuria or previous vascular disease). Patents who had HF, were known to have low EF, those on ACE-I or vitamin E, those with uncontrolled hypertension or overt nephropathy, or recent MI (<4 weeks) were excluded. In this large, simple trial it was impractical to measure left ventricular function in all patients (none of whom had heart failure or were considered to need an ACE-I). Instead, echocardiograms were done in all patients (n=496) from 3 centres who entered a substudy. […] Additionally, an audit of charts identified that in 5285 patients a prerandomization and evaluation of ventricular function had been conducted. Only 409 (7.7%) were documented to have low EF and none had heart failure prior to randomization. A separate analysis of those documented to have a preserved EF (n=4876) is provided. After obtaining written informed consent, all eligible patients entered a run in phase where they received 2.5 mg Ramipril OD for 7-10 days followed by matching placebo for 10-14 days. Patients who were non compliant (<80% of pills taken), who experienced side effects, developed abnormal creatinine or potassium levels or those who withdrew consent were excluded. 9,541 were included; 9,297 were randomized to receive Ramipril at 10 mg/day or matching placebo, with 244 randomized to low dose (2.5 mg/day) of Ramipril.
At randomization, patients were allocated to receive Ramipril at 2.5 mg OD for one week, then 5 mg OD for another 3 weeks, followed by 10 mg once daily, or matching placebo. Additionally, all patients were randomized to vitamin E 400 IU/day or matching placebo. Follow-up visits occurred at 1 month, 6 months and then at 6 month intervals. At each visit, data were collected on events, compliance, and side effects leading to alteration of study medications. All primary and secondary events were documented on additional forms and were centrally adjudicated using standardized definitions. […]

[3] = tested on: high risk patients without known low EF or HF; assay type: in vivo; conditions: subgroup with documented preserved ventricular function (n=4676), vs placebo
[4] = Ramipril 10 mg/day group, n=4645
[5] = Ramipril group, diabetic nephropathy, renal dialysis, laser therapy
[6] = Ramipril group, irrespective of hospitalization
[7] = both, human, in vivo, 4.5 years

For `C[C@H](CS)C(=O)N1CCC[C@H]1C(=O)O` [captopril], the Newly diagnosed diabetes [1] is listed as “reduction in newly diagnosed diabetes”.

With `CCOC(=O)[C@H](CCc1ccccc1)N[C@@H](C)C(=O)N1[C@H](C(=O)O)C[C@@H]2CCC[C@@H]21` [Ramipril, ramipril] the “Relative risk reduction (conditional RRR)” value ([2]; 2nd year) was 22%, the “Relative risk reduction (conditional RRR)” value ([2]; 3rd year) was 26% and the “Relative risk reduction (conditional RRR)” value ([2]; 4th year) was 27%. For the same compound, the “Relative risk reduction in the primary outcome at interim analysis” value ([2]; DSMB interim look, Mar. 22, 1999, 95% CI 12% to 28%) was 20%, the “Primary outcome CV death, MI, stroke: % of patients” value [2, 4] was 13.9% and the “Primary outcome CV death, MI, stroke: number of patients” value [2, 4] was 646. For the same compound, the “New diagnosis of diabetes: % of patients” value ([2]; Ramipril group) was 3.8%, the “New diagnosis of diabetes: number of patients” value ([2]; Ramipril group) was 108 and the “Stopping blinded medication for hypotension/dizziness: %” value ([2]; Ramipril group) was 1.8%. For the same compound, the “Stopping blinded medication for hypotension/dizziness: number” value ([2]; Ramipril group) was 82, the “Primary outcome: number of patients at 2 years” value ([2]; Ramipril group, at 2 years) was 323 and the “Cardiac arrests: % of patients” value ([2]; Ramipril group, n=4645) was 0.8%. For the same compound, the “Cardiac arrests: number of patients” value ([2]; Ramipril group, n=4645) was 37, the “Heart failure hospitalizations: % of patients” value ([2]; Ramipril group, n=4645) was 3.2% and the “Heart failure hospitalizations: number of patients” value ([2]; Ramipril group, n=4645) was 150. The “MI: % of patients” value ([2]; Ramipril group, n=4645) was 9.8%, the “MI: number of patients” value ([2]; Ramipril group, n=4645) was 453 and the “Revascularization: % of patients” value ([2]; Ramipril group, n=4645) was 16.0%. For the same compound, the “Revascularization: number of patients” value ([2]; Ramipril group, n=4645) was 742, the “Strokes: % of patients” value ([2]; Ramipril group, n=4645) was 3.3% and the “Strokes: number of patients” value ([2]; Ramipril group, n=4645) was 155. For the same compound, the “Total mortality: % of patients” value ([2]; Ramipril group, n=4645) was 10.3%, the “Total mortality: number of patients” value ([2]; Ramipril group, n=4645) was 476 and the “UA with ECG changes: % of patients” value ([2]; Ramipril group, n=4645) was 3.4%. The “UA with ECG changes: number of patients” value ([2]; Ramipril group, n=4645) was 179, the “Unstable angina hospitalization: % of patients” value ([2]; Ramipril group, n=4645) was 12.1% and the “Unstable angina hospitalization: number of patients” value ([2]; Ramipril group, n=4645) was 564. The “Primary outcome: number of patients within 1 year after randomization” value ([2]; Ramipril group, within 1 year) was 167, the “Permanently discontinuing blinded medication, % of alive” value ([2]; Ramipril group, % of alive) was 29.1% and the “Stopping blinded medication at any time, % of alive” value ([2]; Ramipril group, % of alive) was 33.0%. For the same compound, the “Diabetic complications: % of patients” value [2, 5] was 6.4%, the “Diabetic complications: number of patients” value [2, 5] was 298 and the “All heart failure (new heart failure): number of patients” value [2, 6] was 343. The “All heart failure: % of patients” value [2, 6] was 7.4%, the “Worsening angina: % of patients” value [2, 6] was 23.8% and the “Worsening angina: number of patients” value [2, 6] was 1104. The “Difference in BP reduction, diastolic” value ([2]; Ramipril vs placebo) was −2 mmHg, the “Difference in BP reduction, systolic” value ([2]; Ramipril vs placebo) was −3 mmHg and the “Impact on hospitalizations for unstable angina” value ([2]; Ramipril vs placebo) was “no impact”. For the same compound, the “Increase in patients stopping medication for dizziness/hypotension” value ([2]; Ramipril vs placebo, nonsignificant) was 0.3%, the Blood pressure ([2]; at 1 month, 139/79 at entry) was 133/76 and the Blood pressure ([2]; at 2 years) was 135/76. The Blood pressure ([2]; at the end of the study) was 136/76, the “Excess of patients stopping for cough” value [2, 7] was 5% and the “No. permanently discontinuing blinded medication” value [2, 7] was 1207. The “No. stopping blinded medication at any time” value [2, 7] was 1370, the “Stopping blinded medication for angioedema: %” value [2, 7] was 0.3% and the “Stopping blinded medication for angioedema: number” value [2, 7] was 16. For the same compound, the “Stopping blinded medication for cough: %” value [2, 7] was 7.2%, the “Stopping blinded medication for cough: number” value [2, 7] was 335 and the “Composite outcome of CV death, MI, stroke, heart failure, revascularization and diabetic complications” value ([2]; diabetic patients with no clinical manifestations of CVD (1100)) was “significantly reduced”. The Relative risk reduction ([2]; first year of the trial) was “about 11%”, the “Primary outcome relative risk conditioned on survival up to the prior year” value ([2]; fourth year) was 0.73 and the Tolerability ([2]; in the trial) was “generally well tolerated”. The “Primary outcome relative risk conditioned on survival up to the prior year” value ([2]; second year) was 0.78, the “Primary composite outcome relative risk (95% CI)” value ([2]; subgroup Age 65+, 5128 patients) was 0.75 (0.66-0.85) and the “Primary composite outcome relative risk (95% CI)” value ([2]; subgroup Age <65, 4169 patients) was 0.82 (0.70-0.98). For the same compound, the “Primary composite outcome relative risk (95% CI)” value ([2]; subgroup CAD+, 7475 patients) was 0.80 (0.71-0.89), the “Primary composite outcome relative risk (95% CI)” value ([2]; subgroup CAD−, 1822 patients) was 0.71 (0.54-0.93) and the “Primary composite outcome relative risk (95% CI)” value ([2]; subgroup CVD+, 8160 patients, Ramipril vs placebo) was 078 (0.71-0.87). The “Primary composite outcome relative risk (95% CI)” value ([2]; subgroup CVD−, 1137 patients) was 0.81 (0.56-1.20), the “Primary composite outcome relative risk (95% CI)” value ([2]; subgroup Cerebro VD+, 1013 patients) was 0.73 (0.56-0.95) and the “Primary composite outcome relative risk (95% CI)” value ([2]; subgroup Cerebro VD−, 8284 patients) was 0.79 (0.71-0.88). The “Primary composite outcome relative risk (95% CI)” value ([2]; subgroup Diabetes+, 3578 patients) was 0.76 (0.65-0.89), the “Primary composite outcome relative risk (95% CI)” value ([2]; subgroup Diabetes−, 5719 patients) was 0.79 (0.69-0.91) and the “Primary composite outcome relative risk (95% CI)” value ([2]; subgroup Female, 2480 patients) was 0.76 (0.61-0.95). For the same compound, the “Primary composite outcome relative risk (95% CI)” value ([2]; subgroup Hypertension+, 4355 patients) was 0.75 (0.65-0.87), the “Primary composite outcome relative risk (95% CI)” value ([2]; subgroup Hypertension−, 4942 patients) was 0.81 (0.70-0.93) and the “Primary composite outcome relative risk (95% CI)” value ([2]; subgroup MA+ (microalbuminuria), 1963 patients) was 0.71 (0.59-0.86). The “Primary composite outcome relative risk (95% CI)” value ([2]; subgroup MA−, 7334 patients) was 0.82 (0.72-0.92), the “Primary composite outcome relative risk (95% CI)” value ([2]; subgroup Male, 6817 patients) was 0.79 (0.70-0.89) and the “Primary composite outcome relative risk (95% CI)” value ([2]; subgroup PVD+, 4046 patients) was 0.74 (0.64-0.86). For the same compound, the “Primary composite outcome relative risk (95% CI)” value ([2]; subgroup PVD−, 5251 patients) was 0.84 (0.72-0.98), the “Primary composite outcome relative risk (95% CI)” value ([2]; subgroup Prior MI+, 4892 patients) was 0.79 (0.69-0.90) and the “Primary outcome, events/patients, documented EF≧0.40” value ([2]; subgroup with documented EF≧0.40 (n=4676), Ramipril group) was 317/2339. The “Primary outcome relative risk conditioned on survival up to the prior year” value ([2]; third year) was 0.74, the “Primary outcome RR at 2 years” value ([2]; vs placebo, at 2 years) was 0.81 and the “Primary outcome RR within 1 year after randomization” value ([2]; vs placebo, within 1 year) was 0.85. The “Primary outcome RR, documented EF≧0.40” value [3] was 0.73.
